In ChEMBL document CHEMBL1157284, “Role of glutamate and dopamine receptors in the psychopharmacological profile of the indole alkaloid psychollatine” (2006) one finds Activity data, which are given here for four compounds.

Assay [1] has as its system Mus musculus. Description: Protective effect against amphetamine-induced lethality in mouse at 4 mg/kg, ip administered 30 mins prior to amphetamine challenge measured after 24 hrs. It counts as functional, organism-based. Also on record: dose 4 mg/kg.
In assay [2] the test system is Mus musculus. Put plainly: Anticonvulsant activity against NMDA-induced seizures in mouse assessed as seizure latency at 0.3 mg/kg, ip administered 30 mins prior to NMDA challenge. It counts as functional. As to conditions: route intraperitoneal.
The subject of assay [3] is Mus musculus. Description: Inhibition of apomorphine-induced climbing behavior in mouse at 0.2 mg/kg, ip administered 30 mins prior to apomorphine challenge. It counts as functional, organism-based. Also on record: dose 0.2 mg/kg.
The subject of assay [4] is Mus musculus. Description: Anticonvulsant activity against NMDA-induced seizures in mouse assessed as seizure latency at 50 mg/kg, ip administered 30 mins prior to NMDA challenge. It counts as functional. To be noted: route intraperitoneal.
The subject of assay [5] is Mus musculus. Description: Protective effect against amphetamine-induced lethality in mouse at 100 mg/kg, ip administered 30 mins prior to amphetamine challenge measured after 24 hrs. It counts as functional, organism-based. Also on record: dose 100 mg/kg.
The test system of assay [6] is Mus musculus. Put plainly: Protective effect against amphetamine-induced lethality in mouse at 30 mg/kg, ip administered 30 mins prior to amphetamine challenge measured after 24 hrs. It counts as functional, organism-based. Also on record: dose 30 mg/kg.
For assay [7], the system named is Mus musculus. Description: Anticonvulsant activity against NMDA-induced seizures in mouse assessed as seizure latency at 75 mg/kg, ip administered 30 mins prior to NMDA challenge. To be noted: route intraperitoneal. It counts as functional.
Assay [8] has as its system Mus musculus. Description: Decrease in spontaneous locomotor activity in mouse at 10 mg/kg. It counts as functional, organism-based. Also on record: dose 10 mg/kg.
In assay [9] the test system is Mus musculus. Put plainly: Protective effect against amphetamine-induced lethality in mouse at 10 mg/kg, ip administered 30 mins prior to amphetamine challenge measured after 24 hrs. It counts as functional, organism-based. On the set-up: dose 10 mg/kg.
The subject of assay [10] is Mus musculus. Description: Inhibition of apomorphine-induced climbing behavior in mouse at 10 mg/kg, ip administered 30 mins prior to apomorphine challenge. It counts as functional, organism-based. Also on record: dose 10 mg/kg.
Assay [11] concerns Mus musculus. Description: Anticonvulsant activity against NMDA-induced seizures in mouse assessed as seizure latency at 100 mg/kg, ip administered 30 mins prior to NMDA challenge. It counts as functional. To be noted: route intraperitoneal.
The subject of assay [12] is Mus musculus. Description: Decrease in spontaneous locomotor activity in mouse at 7.5 mg/kg. It counts as functional, organism-based. Also on record: dose 7.5 mg/kg.
Assay [13] relates to Mus musculus. Description: Antipsychotic activity against MK-801-induced hyperlocomotion in mouse at 10 mg/kg administered 30 mins prior to MK-801 challenge measured after 30 mins. It counts as functional, organism-based. On the set-up: dose 10 mg/kg.
For assay [14], the system named is Mus musculus. Put plainly: Antipsychotic activity against MK-801-induced hyperlocomotion in mouse at 100 mg/kg administered 30 mins prior to MK-801 challenge measured after 30 mins. It counts as functional, organism-based. Also on record: dose 100 mg/kg.
Assay [15] relates to Mus musculus. Put plainly: Protective effect against amphetamine-induced lethality in mouse at 3 mg/kg, ip administered 30 mins prior to amphetamine challenge measured after 24 hrs. It counts as functional, organism-based. On the set-up: dose 3 mg/kg.
Assay [16] deals with Mus musculus. Description: Decrease in spontaneous locomotor activity in mouse at 100 mg/kg. It counts as functional, organism-based. On the set-up: dose 100 mg/kg.
Assay [17] relates to Mus musculus. Description: Antipsychotic activity against MK-801-induced hyperlocomotion in mouse at 7.5 mg/kg administered 30 mins prior to MK-801 challenge measured after 30 mins. Also on record: dose 7.5 mg/kg. It counts as functional, organism-based.

Molecules are shown by their SMILES. Activity calls are given as the source filed them. The rule behind the calls is not given here.

For the compound `CN(C)CCCN1c2ccccc2Sc2ccc(Cl)cc21`, the outcome with Mus musculus [1] was Active.

Take `CN1C(=O)CN=C(c2ccccc2)c2cc(Cl)ccc21`: the outcome in the assay on Mus musculus [1] was inactive.

Turning to `C[C@]12N[C@H](Cc3ccccc31)c1ccccc12.O=C(O)/C=C\C(=O)O` [DIZOCILPINE MALEATE], the Activity in the assay with Mus musculus [2] stood at 360 s. Further, in the assay with Mus musculus [3], the result was Active.

Consider `COC(=O)C1=CO[C@@H](O[C@H]2O[C@H](CO)[C@@H](O)[C@H](O)[C@H]2O)[C@@H]2C([C@@H]3NCCc4c3[nH]c3ccccc43)=CC[C@H]12` [PSYCHOLLATINE], for which the values for the Activity in the assay with Mus musculus [4], in the assay with Mus musculus [7] and with Mus musculus [11] were 850 s, 1020 s and 857.14 s, respectively. The result in the assay with Mus musculus [5], in the assay with Mus musculus [6], with Mus musculus [8] and in the assay on Mus musculus [12] was inactive. For the same compound, the result in the assay on Mus musculus [9], in the assay with Mus musculus [10], in the assay with Mus musculus [13], in the assay on Mus musculus [14], in the assay with Mus musculus [15] and in the assay on Mus musculus [16] was Active. Also, the result with Mus musculus [17] was Active.
